# Measured values from publication PMC6522510 (Nature Communications, 2019).
# pEC50: −log10 of the molar value. Where two headings read alike, the source gives them in different places.
# Experiments:
# Test in all cases: cells
# Set-up in all cases: species or system AML cell lines (8); Secondary HTS, 10-point dose-response in triplicate, Cell Titer Glo viability, four-parameter fit EC50
# CMS = details: read-out: CMS
# MV4-11 = details: Homo sapiens, read-out: MV4-11
# U937 = details: Homo sapiens, read-out: U937
# MOLM-13 = details: Homo sapiens, read-out: MOLM-13
# CHRF288-11 = details: read-out: CHRF288-11
# M07e = details: M-07e, read-out: M07e
# ML-2 = details: Homo sapiens, read-out: ML-2
# CMK = details: Homo sapiens, read-out: CMK
SMILES,pEC50 (CMS; 72 h),"pEC50 (MV4-11; MV4-11, 72 h)","pEC50 (U937; U-937, 72 h)","pEC50 (MOLM-13; MOLM-13, 72 h)",pEC50 (CHRF288-11; 72 h),pEC50 (M07e; 72 h),"pEC50 (ML-2; ML-2, 72 h)","pEC50 (CMK; CMK, 72 h)",pEC50 (CMS; 72 h cell viability),pEC50 (MV4-11; 72 h cell viability),"pEC50 (U937; U-937, 72 h cell viability)",pEC50 (MOLM-13; 72 h cell viability),pEC50 (CHRF288-11; 72 h cell viability),pEC50 (M07e; 72 h cell viability),pEC50 (ML-2; 72 h cell viability),pEC50 (CMK; 72 h cell viability)
"O=C(Nc1cccc(NC(=O)c2cccc(O)c2O)c1)c1cccc(O)c1O [SJ000784251, MST312]",5.54,< 5.00,5.55,5.82,5.70,5.28,5.43,< 5.00,,,,,,,,
"O=C(O)Cc1ccccc1 [SJ000784253, SODIUM PHENYLACETATE]",,,,,,,,,< 5.00,< 5.00,< 5.00,5.68,< 5.00,< 5.00,< 5.00,< 5.00
"CC(=O)Nc1ccc(NC(=S)NC(=O)c2ccc(C(C)(C)C)cc2)cc1 [SJ000784260, TENOVIN-1]",6.11,< 5.00,< 5.00,< 5.00,< 5.00,< 5.00,< 5.00,< 5.00,,,,,,,,
"COc1cc2c(NC3CCN(C)CC3)nc(N3CCCN(C)CC3)nc2cc1OCCCN(C)C [SJ000784262, UNC0224]",< 5.00,< 5.00,< 5.00,< 5.00,< 5.00,< 5.00,< 5.00,< 5.00,,,,,,,,
"CN(C)CC(=O)Nc1ccc2[nH]c(=O)c3ccccc3c2c1 [SJ000784265, PJ34]",< 5.00,< 5.00,< 5.00,< 5.00,< 5.00,< 5.00,< 5.00,< 5.00,,,,,,,,
NC(=O)C1CCCc2c1[nH]c1ccc(Cl)cc21 (stereo not shown) [SJ000784267],< 5.00,< 5.00,< 5.00,< 5.00,< 5.00,< 5.00,< 5.00,< 5.00,,,,,,,,
"Cn1cc(/C=C/C(=O)c2cccc(F)c2)cc1/C=C/C(=O)NO [SJ000784269, MC1568]",< 5.00,< 5.00,5.47,< 5.00,5.31,6.34,5.37,< 5.00,,,,,,,,
"Clc1ccc(-c2csc(NN=C3CCCC3)n2)cc1 [SJ000784270, CPTH2]",< 5.00,< 5.00,< 5.00,< 5.00,< 5.00,< 5.00,< 5.00,< 5.00,,,,,,,,
"Cn1cccc1/C=C1\C(=O)NC(=O)c2ccccc21 [SJ000784271, BYK 204165]",5.66,6.14,5.80,6.59,5.26,6.20,< 5.00,< 5.00,,,,,,,,
"CN(C)CCCNc1c2ccccc2nc2c1[nH]c1ccccc12 [SJ000784272, SYUIQ-5]",6.43,< 5.00,6.68,5.80,5.80,6.27,5.74,< 5.00,,,,,,,,
"CC(C)C(=O)SCCCCCCC(=O)Nc1nc(-c2ccccc2)cs1 [SJ000784276, NCH 51]",5.35,< 5.00,5.17,5.51,5.44,5.44,5.25,< 5.00,,,,,,,,
"NC(=O)c1cccc2ncc(-c3ccc(Cl)cc3)nc12 [SJ000784278, PARP INHIBITOR XII]",< 5.00,< 5.00,< 5.00,5.60,< 5.00,< 5.00,< 5.00,< 5.00,,,,,,,,
"O=C(O)C(Cc1c[nH]c2ccccc12)N1C(=O)c2ccccc2C1=O (stereo not shown) [SJ000784279, RG108]",< 5.00,< 5.00,< 5.00,< 5.00,< 5.00,< 5.00,< 5.00,< 5.00,,,,,,,,
"COC(=O)/C=C/C(=O)OC [SJ000784308, BG-12]",< 5.00,< 5.00,< 5.00,< 5.00,< 5.00,< 5.00,< 5.00,< 5.00,,,,,,,,
"COc1ccc(-c2cc3c(C)nc(N)nc3n([C@H]3CC[C@H](OCCO)CC3)c2=O)cn1 [SJ000784313, PF-04691502]",6.47,9.00,6.22,5.68,5.37,< 5.00,6.64,5.85,,,,,,,,
"CN[C@@H]1C[C@H]2O[C@@](C)([C@@H]1OC)n1c3ccccc3c3c4c(c5c6ccccc6n2c5c31)C(=O)N[C@H]4O [SJ000784325, 7-HYDROXYSTAUROSPORINE]",6.39,6.72,6.59,7.19,6.46,< 5.00,6.60,6.64,,,,,,,,
"Nc1nc(=O)n([C@H]2C[C@H](O)[C@@H](CO)O2)cc1F [SJ000785889, 5-FLUORODEOXYCYTIDINE]",< 5.00,< 5.00,< 5.00,6.35,5.50,< 5.00,8.05,6.85,,,,,,,,
"COc1cc2c(cc1-c1c(C)noc1C)ncc1[nH]c(=O)n([C@H](C)c3ccccn3)c12 [SJ000785891, I-BET151]",5.68,< 5.00,5.49,6.19,5.29,< 5.00,5.57,< 5.00,,,,,,,,
"Fc1ccc(CNc2ncnc3ccc(F)cc23)cc1 [SJ000785893, SPAUTIN-1]",< 5.00,< 5.00,5.52,< 5.00,< 5.00,< 5.00,< 5.00,< 5.00,,,,,,,,
"Nc1ncnc2c1ncn2[C@@H]1O[C@H](C(=O)N2CCN(CC(=O)Nc3cccc4c3CNC4=O)CC2)[C@@H](O)[C@H]1O [SJ000785896, EB-47]",< 5.00,< 5.00,< 5.00,< 5.00,< 5.00,< 5.00,< 5.00,< 5.00,,,,,,,,
"CCCCCCCCCCCCCCCc1cccc(O)c1C(=O)O [SJ000785900, ANACARDIC ACID]",< 5.00,< 5.00,< 5.00,< 5.00,< 5.00,< 5.00,< 5.00,< 5.00,,,,,,,,
"COc1cc2c(NC3CCN(C)CC3)nc(N3CCCN(C)CC3)nc2cc1OCCOCCN(C)C [SJ000785901, UNC0321]",< 5.00,< 5.00,< 5.00,< 5.00,< 5.00,< 5.00,< 5.00,< 5.00,,,,,,,,
"Cc1cc(Nc2ccc(NC(=O)c3ccc(Nc4ccnc5ccccc45)cc3)cc2)nc(N)n1 [SJ000785906, SGI-1027]",5.00,5.92,6.12,5.85,5.55,5.80,5.59,< 5.00,,,,,,,,
"CC(C)(O)[C@@H]1CC[C@](C)([C@H]2[C@@H](O)C[C@@]3(C)[C@@H]4C[C@H](O[C@@H]5O[C@H](CO)[C@@H](O)[C@H](O)[C@H]5O)[C@H]5C(C)(C)[C@@H](O[C@@H]6OC[C@@H](O)[C@H](O)[C@H]6O)CC[C@@]56C[C@@]46CC[C@]23C)O1 [SJ000785909, ASTRAGALOSIDE IV]",< 5.00,< 5.00,< 5.00,5.37,6.09,< 5.00,6.06,< 5.00,,,,,,,,
"C[C@@H]1NC(=O)[C@H]2CCCN2C(=O)[C@H](CCCCCC(=O)[C@@H]2CO2)NC(=O)[C@@H](C)NC1=O [SJ000785910, HC TOXIN]",,,,,,,,,7.54,< 5.00,7.49,6.82,7.30,7.68,6.96,< 5.00
"O=C(NC(NC(=S)Nc1ccc(F)c([N+](=O)[O-])c1)C(Cl)(Cl)Cl)C(c1ccccc1)c1ccccc1 (stereo not shown) [SJ000786007, CGK 733]",< 5.00,< 5.00,< 5.00,< 5.00,< 5.00,< 5.00,< 5.00,< 5.00,,,,,,,,
